Test systems include EKVX NSCLC; MALME-3M melanoma; NCI-H460 lung; RPMI-8226 leukemia; SF-295 CNS; SK-MEL-5 melanoma; SN12C renal; SNB-19 CNS; SR leukemia; UO-31 renal.
Holding throughout (assay): NCI tumour cell line growth inhibition, 48 h

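Five compound concentrations were applied to cells in 96-well plates for 48 hours; endpoints were derived by simple linear interpolation of the resulting dose-response curve. GI50 marks 50% less growth. TGI is the concentration that stops growth completely.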 Some results are limits rather than exact numbers.

On to `CC[C@]1(O)CC2CN(CCc3c([nH]c4ccccc34)[C@@](C(=O)OC)(c3cc4c(cc3OC)N(C)[C@H]3[C@@](O)(C(=O)OC)[C@H](OC(C)=O)[C@]5(CC)C=CCN6CC[C@]43[C@@H]65)C2)C1` (some centres undefined), for which the GI50 in the assay with EKVX NSCLC was 0.00956 µM; in the assay on MALME-3M melanoma it was less than 0.005 µM; in the assay with NCI-H460 lung, less than 0.005 µM; with RPMI-8226 leukemia, less than 0.005 µM; in the assay on SF-295 CNS, less than 0.005 µM; with SK-MEL-5 melanoma, less than 0.005 µM. The GI50 in the assay on SN12C renal is less than 0.005 µM; with SNB-19 CNS it was less than 0.005 µM; in the assay with SR leukemia it was less than 0.005 µM; in the assay on UO-31 renal, 0.511 µM. The TGI is more than 50 µM in the assay with EKVX NSCLC; 11.8 µM in the assay with MALME-3M melanoma; 5.8 µM with NCI-H460 lung; 8.48 µM in the assay with RPMI-8226 leukemia; 6.03 µM in the assay with SF-295 CNS; 0.0607 µM in the assay with SK-MEL-5 melanoma. Further, the values for the TGI in the assay with SN12C renal, with SNB-19 CNS and in the assay on UO-31 renal were more than 37.3 µM, 15.6 µM and 15.9 µM, respectively.
With `COc1ccc(/C=N/N=C(\N)NO)cc1OC`, the TGI in the assay with EKVX NSCLC is more than 100 µM; in the assay on MALME-3M melanoma, more than 100 µM; with NCI-H460 lung, more than 100 µM; in the assay with RPMI-8226 leukemia it was more than 100 µM; in the assay with SF-295 CNS, more than 100 µM; in the assay on SK-MEL-5 melanoma, 58.3 µM. The TGI in the assay on SN12C renal, in the assay on SNB-19 CNS, in the assay on SR leukemia and in the assay on UO-31 renal was more than 100 µM throughout.
As for `C1CC[N-]CC1.C1CC[N-]CC1.C1CC[N-]CC1.C1CC[N-]CC1.[Cl][Rh][Cl]`, the GI50 in the assay on MALME-3M melanoma is 6.64 µM; in the assay on NCI-H460 lung, 2.87 µM; with RPMI-8226 leukemia, 3.2 µM; in the assay on SF-295 CNS, 3 µM; in the assay with SK-MEL-5 melanoma it was 4.2 µM; in the assay on SN12C renal it was 1.4 µM. Further, the GI50 was 4.75 µM in the assay on SNB-19 CNS, 4.75 µM with SR leukemia and 34.4 µM in the assay with UO-31 renal. The TGI is 43.4 µM in the assay on MALME-3M melanoma; 26.5 µM with NCI-H460 lung; 13.6 µM in the assay on RPMI-8226 leukemia; 81.1 µM with SF-295 CNS; 18.9 µM with SK-MEL-5 melanoma; more than 100 µM in the assay with SN12C renal. The TGI in the assay on SNB-19 CNS was more than 100 µM; in the assay on SR leukemia, 42 µM; in the assay with UO-31 renal it was more than 100 µM.
As for `CSc1nc2c(c(=O)[nH]1)N=C1c3ccccc3C(=O)C1C(c1ccc(F)cc1)N2` (centres undefined), the GI50 is 18.2 µM with EKVX NSCLC; 19.6 µM in the assay with MALME-3M melanoma; 5.1 µM with NCI-H460 lung; 4.2 µM in the assay on RPMI-8226 leukemia; 3.67 µM in the assay with SF-295 CNS; 6.13 µM with SK-MEL-5 melanoma. Further, the GI50 in the assay with SN12C renal was 28.4 µM; in the assay on SNB-19 CNS, 15.9 µM; with SR leukemia, 6.31 µM; in the assay on UO-31 renal, 16.3 µM. In addition, the TGI with EKVX NSCLC is more than 100 µM; with MALME-3M melanoma, more than 100 µM; with NCI-H460 lung, 38.7 µM; in the assay on RPMI-8226 leukemia, more than 100 µM; in the assay with SF-295 CNS, 34.3 µM; with SK-MEL-5 melanoma, 66.6 µM. Moreover, the TGI was more than 100 µM in the assay on SN12C renal, 66 µM in the assay with SNB-19 CNS, more than 100 µM with SR leukemia and more than 100 µM in the assay on UO-31 renal.
`CCCCCCCCCC(=O)CC(=O)c1ccc(O)cc1O`: the TGI is 73 µM in the assay with EKVX NSCLC; more than 100 µM in the assay with MALME-3M melanoma; more than 100 µM in the assay on NCI-H460 lung; 59.6 µM with RPMI-8226 leukemia; 70.1 µM in the assay with SF-295 CNS; 31.5 µM with SK-MEL-5 melanoma. Also, the TGI in the assay on SN12C renal was 74.4 µM; in the assay on SNB-19 CNS, more than 100 µM; in the assay on SR leukemia, 44.9 µM; with UO-31 renal, 98 µM.
With `O=C1NC(=S)NC(=O)C1=Cc1cc2c(cc1[N+](=O)[O-])OCO2`, the TGI in the assay with EKVX NSCLC, in the assay with MALME-3M melanoma, with NCI-H460 lung, with RPMI-8226 leukemia, in the assay with SK-MEL-5 melanoma and with SN12C renal was more than 100 µM in each case. The TGI in the assay on SNB-19 CNS, in the assay with SR leukemia and in the assay on UO-31 renal was more than 100 µM each time.
For the compound `CC(=O)OC1C(=O)C(O)C(C)OC1O[C@@H]1C[C@@]2(C)[C@@H]3CC=C4[C@@H](C[C@H](O)C(=O)C4(C)C)[C@]3(C)C(=O)C[C@]2(C)[C@H]1[C@@](C)(O)C(=O)/C=C/C(C)(C)O` (some centres undefined), the TGI in the assay on EKVX NSCLC is more than 7.55 µM; with MALME-3M melanoma, 9.83 µM; in the assay on NCI-H460 lung, more than 10 µM; in the assay on RPMI-8226 leukemia, 8.04 µM; in the assay with SF-295 CNS, 7.19 µM; in the assay on SK-MEL-5 melanoma, 8.4 µM. Also, the TGI in the assay with SN12C renal was more than 10 µM; in the assay with SNB-19 CNS, 4.56 µM; in the assay with SR leukemia, more than 10 µM; with UO-31 renal, 4.95 µM.
`CC(=O)O[C@H]1C(=O)[C@@]2(C)C(C(OC(=O)c3ccccc3)[C@]3(O)CC(OC(=O)[C@H](OC(=O)CCC(=O)O)C(NC(=O)c4ccccc4)c4ccccc4)C(C)=C1C3(C)C)C1(OC(C)=O)COC1C[C@@H]2OC(=O)CCC(=O)O` (some centres undefined): the TGI in the assay on EKVX NSCLC is more than 100 µM; in the assay with MALME-3M melanoma, more than 100 µM; in the assay on SK-MEL-5 melanoma it was more than 100 µM; with SN12C renal, more than 100 µM; with SNB-19 CNS, more than 100 µM; with SR leukemia, more than 23.3 µM. Besides, the TGI in the assay with UO-31 renal is more than 100 µM. In the assay with SR leukemia, the GI50 is less than 0.0202 µM.
For the compound `O=c1n(C2CCCCC2)c(=C(Cl)Cl)c(=C(Cl)Cl)n1C1CCCCC1`, the TGI in the assay with EKVX NSCLC, in the assay on MALME-3M melanoma, with NCI-H460 lung, in the assay with RPMI-8226 leukemia, in the assay on SF-295 CNS and in the assay with SK-MEL-5 melanoma was more than 100 µM in each case. For the same compound, the TGI in the assay on SN12C renal, in the assay on SNB-19 CNS, with SR leukemia and with UO-31 renal was more than 100 µM throughout.
For the compound `NC(=O)c1cnc(N[C@@H]2CCCC[C@@H]2N)nc1Nc1cccc(-n2nccn2)c1`, the GI50 in the assay with EKVX NSCLC is 6.04 µM; with MALME-3M melanoma, 3.06 µM; in the assay with NCI-H460 lung it was 3.42 µM; with RPMI-8226 leukemia, 6.7 µM; with SF-295 CNS it was 13.3 µM; in the assay with SK-MEL-5 melanoma it was 5.37 µM. Also, the GI50 with SN12C renal was 4.13 µM; with SNB-19 CNS it was 10.7 µM; in the assay on SR leukemia, 2.23 µM; in the assay with UO-31 renal, 3.32 µM. Moreover, the TGI with EKVX NSCLC amounted to 18.9 µM; in the assay on MALME-3M melanoma, 10.4 µM; in the assay with NCI-H460 lung it was 12.6 µM; with RPMI-8226 leukemia, 23 µM; in the assay on SF-295 CNS it was 26.7 µM; with SK-MEL-5 melanoma it was 18 µM. The TGI came to 17.6 µM in the assay with SN12C renal, 25 µM in the assay with SNB-19 CNS, 6.5 µM in the assay with SR leukemia and 14.7 µM in the assay with UO-31 renal.

The values are drawn from PubChem BioAssay (NCI).
